Laboratory results taken from publication PMC7026418, “The kinase polypharmacology landscape of clinical PARP inhibitors” (Scientific Reports, 2020).
Read-outs that look alike come from different tables or passages of the source.

Experiments:
Test in all cases: biochemical
Parameters in all cases: DiscoveRx KINOMEscan active site-directed competition binding; percent of control kinase bound to immobilised ligand
MYO3B = molecular target: T1, MYO3B (Homo sapiens, UniProt Q8WXR4)
T1 sequence (Q8WXR4 1-1341): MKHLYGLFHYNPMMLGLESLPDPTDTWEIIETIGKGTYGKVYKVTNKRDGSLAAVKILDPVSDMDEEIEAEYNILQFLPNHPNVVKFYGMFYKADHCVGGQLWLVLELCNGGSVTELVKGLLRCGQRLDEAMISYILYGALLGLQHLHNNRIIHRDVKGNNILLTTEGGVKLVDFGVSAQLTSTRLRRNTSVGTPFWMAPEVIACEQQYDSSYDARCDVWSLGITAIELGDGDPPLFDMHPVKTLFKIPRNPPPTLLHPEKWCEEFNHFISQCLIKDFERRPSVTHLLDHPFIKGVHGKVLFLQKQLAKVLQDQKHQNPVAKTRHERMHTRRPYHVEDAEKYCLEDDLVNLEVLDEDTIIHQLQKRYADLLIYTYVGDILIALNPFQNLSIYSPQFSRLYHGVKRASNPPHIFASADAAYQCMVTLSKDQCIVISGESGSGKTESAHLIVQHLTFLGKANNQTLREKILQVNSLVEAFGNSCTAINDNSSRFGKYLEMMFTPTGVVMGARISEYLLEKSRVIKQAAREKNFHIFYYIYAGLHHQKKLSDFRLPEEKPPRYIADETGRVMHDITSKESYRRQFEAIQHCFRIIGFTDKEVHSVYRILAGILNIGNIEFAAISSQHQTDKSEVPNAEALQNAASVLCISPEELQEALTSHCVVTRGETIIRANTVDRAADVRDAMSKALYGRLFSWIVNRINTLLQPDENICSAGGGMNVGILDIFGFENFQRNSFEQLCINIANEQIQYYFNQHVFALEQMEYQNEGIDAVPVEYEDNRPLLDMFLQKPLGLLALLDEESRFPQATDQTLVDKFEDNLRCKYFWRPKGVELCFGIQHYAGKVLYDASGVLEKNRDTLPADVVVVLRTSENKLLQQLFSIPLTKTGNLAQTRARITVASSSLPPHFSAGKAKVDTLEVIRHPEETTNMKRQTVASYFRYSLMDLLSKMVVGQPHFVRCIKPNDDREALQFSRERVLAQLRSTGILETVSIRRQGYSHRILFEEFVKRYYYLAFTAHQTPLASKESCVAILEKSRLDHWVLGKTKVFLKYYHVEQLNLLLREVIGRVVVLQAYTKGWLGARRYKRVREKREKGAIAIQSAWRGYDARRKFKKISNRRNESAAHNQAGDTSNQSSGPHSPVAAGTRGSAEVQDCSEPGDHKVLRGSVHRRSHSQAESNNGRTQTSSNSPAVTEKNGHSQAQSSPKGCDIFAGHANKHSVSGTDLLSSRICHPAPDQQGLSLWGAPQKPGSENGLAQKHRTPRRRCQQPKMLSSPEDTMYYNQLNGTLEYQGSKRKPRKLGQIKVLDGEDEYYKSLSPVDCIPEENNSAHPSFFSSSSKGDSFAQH

ASK2 = molecular target: T2, ASK2 (Homo sapiens, UniProt O95382)
T2 construct: gene MAP3K6
T2 sequence (O95382 1-1288): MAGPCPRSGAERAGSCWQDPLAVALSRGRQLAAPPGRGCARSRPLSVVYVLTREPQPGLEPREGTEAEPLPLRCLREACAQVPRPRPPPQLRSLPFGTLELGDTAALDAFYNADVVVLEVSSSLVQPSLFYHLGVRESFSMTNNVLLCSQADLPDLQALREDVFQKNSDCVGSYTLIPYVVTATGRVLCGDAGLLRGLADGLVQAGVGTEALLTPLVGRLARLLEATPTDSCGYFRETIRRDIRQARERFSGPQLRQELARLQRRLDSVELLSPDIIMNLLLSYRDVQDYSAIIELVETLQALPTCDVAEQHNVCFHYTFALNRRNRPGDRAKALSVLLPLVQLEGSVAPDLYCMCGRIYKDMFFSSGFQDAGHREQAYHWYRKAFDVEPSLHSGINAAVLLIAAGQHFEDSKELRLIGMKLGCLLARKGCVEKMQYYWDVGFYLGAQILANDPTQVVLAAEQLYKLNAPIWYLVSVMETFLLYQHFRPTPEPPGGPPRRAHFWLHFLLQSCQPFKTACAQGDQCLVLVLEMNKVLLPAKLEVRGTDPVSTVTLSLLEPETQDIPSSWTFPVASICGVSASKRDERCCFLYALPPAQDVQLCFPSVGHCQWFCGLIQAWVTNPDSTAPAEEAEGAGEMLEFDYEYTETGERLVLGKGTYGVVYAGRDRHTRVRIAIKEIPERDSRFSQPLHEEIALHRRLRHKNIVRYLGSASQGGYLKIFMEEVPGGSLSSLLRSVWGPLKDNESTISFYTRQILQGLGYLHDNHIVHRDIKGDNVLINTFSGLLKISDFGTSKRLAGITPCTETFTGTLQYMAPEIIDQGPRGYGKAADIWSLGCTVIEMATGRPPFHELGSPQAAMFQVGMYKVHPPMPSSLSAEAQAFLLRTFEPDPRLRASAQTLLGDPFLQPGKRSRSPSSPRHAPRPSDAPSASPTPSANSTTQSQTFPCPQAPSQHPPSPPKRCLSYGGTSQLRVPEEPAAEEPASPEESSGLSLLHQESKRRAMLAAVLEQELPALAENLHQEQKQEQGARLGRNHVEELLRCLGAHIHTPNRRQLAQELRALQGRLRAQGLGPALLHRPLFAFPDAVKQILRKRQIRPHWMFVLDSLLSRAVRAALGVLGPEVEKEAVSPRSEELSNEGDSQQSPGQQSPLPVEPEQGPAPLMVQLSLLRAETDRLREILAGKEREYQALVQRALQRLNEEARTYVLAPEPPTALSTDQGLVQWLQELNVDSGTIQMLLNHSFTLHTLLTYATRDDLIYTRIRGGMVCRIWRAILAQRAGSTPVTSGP

AURKB = AURKB (Homo sapiens, UniProt Q96GD4)
[1] = read-out: Talazoparib (BMN 673) / %Ctrl @ 10000nM
[2] = read-out: Olaparib / %Ctrl @ 10000nM
[3] = read-out: Rucaparib / %Ctrl @ 10000nM, binding competition, % of control
[4] = read-out: Niraparib (MK-4827) / %Ctrl @ 10000nM

AURKB, sequence (Q96GD4 whole entry): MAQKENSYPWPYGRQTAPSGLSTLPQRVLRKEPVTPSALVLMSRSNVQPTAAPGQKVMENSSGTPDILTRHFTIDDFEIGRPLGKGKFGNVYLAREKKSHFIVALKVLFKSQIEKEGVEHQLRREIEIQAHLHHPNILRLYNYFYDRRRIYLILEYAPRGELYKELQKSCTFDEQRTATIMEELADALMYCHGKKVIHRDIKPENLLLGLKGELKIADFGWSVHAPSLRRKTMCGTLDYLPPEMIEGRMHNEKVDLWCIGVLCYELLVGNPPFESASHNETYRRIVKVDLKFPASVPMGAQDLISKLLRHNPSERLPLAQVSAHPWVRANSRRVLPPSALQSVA

Cn1ncnc1[C@H]1c2n[nH]c(=O)c3cc(F)cc(c23)N[C@@H]1c1ccc(F)cc1 [Talazoparib]
percent of control binding at 10 µM (MYO3B; [1]): 97%
percent of control binding at 10 µM (ASK2; [1]): 85%
percent of control binding at 10 µM (AURKB; [1]): 73%

O=C(c1cc(Cc2n[nH]c(=O)c3ccccc23)ccc1F)N1CCN(C(=O)C2CC2)CC1 [Olaparib]
percent of control binding at 10 µM (MYO3B; [2]): 75%
percent of control binding at 10 µM (ASK2; [2]): 80%
percent of control binding at 10 µM (AURKB; [2]): 100%

CNCc1ccc(-c2[nH]c3cc(F)cc4c3c2CCNC4=O)cc1 [Rucaparib]
percent of control binding at 10 µM (MYO3B; [3]): 62%
percent of control binding at 10 µM (ASK2; [3]): 77%
percent of control binding at 10 µM (AURKB; [3]): 100%

NC(=O)c1cccc2cn(-c3ccc([C@@H]4CCCNC4)cc3)nc12 [Niraparib]
percent of control binding at 10 µM (MYO3B; [4]): 56%
percent of control binding at 10 µM (ASK2; [4]): 98%
percent of control binding at 10 µM (AURKB; [4]): 8.1%
